Source: EPA's ToxRefDB 2

Experiments:
mouse [1] = conditions: Combined chronic toxicity/carcinogenicity, cd1, Oral, Feed, dose end: 95 week, group: systemic
rat [2] = conditions: Combined chronic toxicity/carcinogenicity, sprague dawley, Oral, Feed, dose end: 104 week, group: systemic
dog [3] = conditions: Subchronic oral toxicity in nonrodent, beagle, Feed, dose end: 13 week, group: systemic
rat [4] = conditions: Prenatal developmental toxicity study, sprague dawley, Oral, Gavage/Intubation, dose end: 15 GD
rat [5] = conditions: Subchronic oral toxicity in rodents, sprague dawley, Feed, dose end: 13 week, group: systemic, systemic / hematology / leukocyte (wbc) count differential / leukocyte (wbc) + systemic / in life observation / body weight / body weight …
dog [6] = conditions: Chronic toxicity; beagle; Oral; Feed; dose end: 12 month; group: systemic; systemic / hematology / erythrocyte (rbc) count differential / erythrocyte (rbc) + systemic / hematology / hematocrit (hct) / hematocrit (…
rabbit [7] = conditions: Prenatal developmental toxicity study, new zealand white, Oral, Gavage/Intubation, dose end: 19 GD
mouse [8] = conditions: Prenatal developmental toxicity study; swiss albino; Oral; Gavage/Intubation; dose end: 15 GD; group: developmental; systemic / in life observation / body weight / fetal weight
dog [9] = conditions: Chronic toxicity, beagle, Oral, Feed, dose end: 52 week, group: systemic
dog [10] = conditions: Subchronic oral toxicity in nonrodent, beagle, Feed, dose end: 13 week, group: systemic; remark: listed apart in the source
rat [11] = conditions: Subchronic oral toxicity in rodents, other, Feed, dose end: 90 day, group: systemic
rat [12] = conditions: Multigenerational reproductive toxicity study, sprague dawley, Oral, Feed, dose end: 2 generation
rat [13] = conditions: Combined chronic toxicity/carcinogenicity, other, Oral, Feed, dose end: 25 month, group: systemic
rabbit [14] = conditions: Prenatal developmental toxicity study, new zealand white, Oral, Gavage/Intubation, dose end: 28 GD
rat [15] = conditions: Prenatal developmental toxicity study, other, Oral, Gavage/Intubation, dose end: 16 GD
rat [16] = conditions: Combined chronic toxicity/carcinogenicity, other, Oral, Feed, dose end: 104 week, group: systemic
mouse [17] = conditions: Carcinogenicity; cd1; Oral; Feed; dose end: 104 week; group: systemic; systemic / pathology gross / liver / mass + systemic / pathology gross / liver / nodule(s) + systemic / pathology microscopic / liver / …
[18] = systemic / in life observation / body weight / body weight + systemic / in life observation / body weight / body weight gain + systemic / in…
[19] = systemic / hematology / leukocyte (wbc) count differential / leukocyte (wbc) + systemic / pathology microscopic / liver / adenoma/carcinoma …
[20] = systemic / clinical chemistry / alkaline phosphatase (alp/alk) / alkaline phosphatase (alp/alk) + systemic / clinical chemistry / aspartate …
[21] = systemic / organ weight / heart / absolute
[22] = group: developmental, developmental / developmental malformation / bone / unossified
[23] = group: developmental, developmental / developmental malformation / bone / unossified + developmental / developmental malformation / bone / incomplete ossification…
[24] = group: maternal, systemic / in life observation / body weight / body weight + systemic / in life observation / body weight / body weight gain + systemic / in…
[25] = group: developmental, developmental / developmental malformation / other / other + systemic / in life observation / body weight / fetal weight + developmental / …
[26] = group: maternal, systemic / in life observation / body weight / body weight gain + systemic / in life observation / clinical signs / no feces + systemic / in…
[27] = group: maternal, systemic / in life observation / clinical signs / no feces + systemic / in life observation / clinical signs / soft stools
[28] = systemic / clinical chemistry / alkaline phosphatase (alp/alk) / alkaline phosphatase (alp/alk) + systemic / pathology microscopic / liver…
[29] = systemic / organ weight / liver / absolute
[30] = systemic / in life observation / body weight / body weight + systemic / in life observation / food consumption / food efficiency
[31] = systemic / in life observation / body weight / body weight + systemic / in life observation / food consumption / food efficiency + systemic…
[32] = group: offspring, systemic / in life observation / body weight / offspring (pup) weight
[33] = group: parental, systemic / in life observation / body weight / body weight + systemic / in life observation / body weight / body weight gain
[34] = group: developmental, systemic / in life observation / body weight / fetal weight
[35] = group: maternal, reproductive / reproductive performance / aborted / aborted + systemic / in life observation / body weight / body weight gain + systemic / …
[36] = group: developmental, developmental / developmental malformation / bone / misaligned + developmental / developmental malformation / kidney / absent renal papilla…
[37] = group: maternal, systemic / in life observation / body weight / body weight gain + systemic / in life observation / food consumption / food consumption + …

SMILES: CCNc1nc(Cl)nc(NCC)n1 [Simazine]
- LOAEL (mouse [1]; systemic / in life observation / body weight / body weight + systemic / in life observation / body weight / body weight gain): 132 mg/kg/day
- LEL (mouse [1]; [18]): 132 mg/kg/day
- NEL (mouse [1]; [18]): 5.3 mg/kg/day
- NOAEL (mouse [1]; [18]): 5.3 mg/kg/day
- LOAEL (rat [2]; systemic / hematology / leukocyte (wbc) count differential / leukocyte (wbc)): 4.17 mg/kg/day
- LEL (rat [2]; systemic / hematology / leukocyte (wbc) count differential / leukocyte (wbc) + systemic / in life observation / body weight / body weight …): 4.17 mg/kg/day
- NEL (rat [2]; [19]): 0.41 mg/kg/day
- NOAEL (rat [2]; [19]): 0.41 mg/kg/day
- LOAEL (dog [3]; [20]): 64.3 mg/kg/day
- NOAEL (dog [3]; [20]): 8.2 mg/kg/day
- LEL (dog [3]; [21]): 6.9 mg/kg/day
- NEL (dog [3]; [21]): < 6.9 mg/kg/day
- LEL (rat [4]; [22]): 30 mg/kg/day
- NEL (rat [4]; [22]): < 30 mg/kg/day
- LOAEL (rat [4]; [23]): 300 mg/kg/day
- NOAEL (rat [4]; [23]): 30 mg/kg/day
- LEL (rat [4]; [24]): 300 mg/kg/day
- LOAEL (rat [4]; [24]): 300 mg/kg/day
- NEL (rat [4]; [24]): 30 mg/kg/day
- NOAEL (rat [4]; [24]): 30 mg/kg/day
- LEL (rat [5]): 12.6 mg/kg/day
- LOAEL (rat [5]): 12.6 mg/kg/day
- NEL (rat [5]): < 12.6 mg/kg/day
- NOAEL (rat [5]): < 12.6 mg/kg/day
- LEL (dog [6]): 3.64 mg/kg/day
- LOAEL (dog [6]): 3.64 mg/kg/day
- NEL (dog [6]): 0.76 mg/kg/day
- NOAEL (dog [6]): 0.76 mg/kg/day
- LOAEL (rabbit [7]; group: developmental, developmental / developmental malformation / other / other + systemic / in life observation / body weight / fetal weight): 200 mg/kg/day
- LEL (rabbit [7]; [25]): 200 mg/kg/day
- NEL (rabbit [7]; [25]): 75 mg/kg/day
- NOAEL (rabbit [7]; [25]): 75 mg/kg/day
- LOAEL (rabbit [7]; [26]): 75 mg/kg/day
- NOAEL (rabbit [7]; [26]): 5 mg/kg/day
- LEL (rabbit [7]; [27]): 5 mg/kg/day
- NEL (rabbit [7]; [27]): < 5 mg/kg/day

SMILES: Nc1ccn([C@H]2CC[C@@H](CO)O2)c(=O)n1 [2',3'-Dideoxycytidine]
- LEL (mouse [8]): 500 mg/kg/day
- LOAEL (mouse [8]): > 500 mg/kg/day
- NEL (mouse [8]): 200 mg/kg/day
- NOAEL (mouse [8]): ≥ 500 mg/kg/day

SMILES: CN(C)c1nc(=O)n(C2CCCCC2)c(=O)n1C [Hexazinone]
- LOAEL (dog [9]; [28]): 37.6 mg/kg/day
- NEL (dog [9]; [28]): 4.97 mg/kg/day
- NOAEL (dog [9]; [28]): 4.97 mg/kg/day
- LEL (dog [9]; systemic / pathology microscopic / liver / lesion(s) (nos) + systemic / pathology microscopic / liver / pigmentation): 37.6 mg/kg/day
- LOAEL (dog [10]; systemic / clinical chemistry / alkaline phosphatase (alp/alk) / alkaline phosphatase (alp/alk) + systemic / in life observation / body …): 122 mg/kg/day
- LEL (dog [10]; [29]): 5.1 mg/kg/day
- NEL (dog [10]; [29]): < 5.1 mg/kg/day
- NOAEL (dog [10]; systemic / organ weight / liver / absolute + systemic / clinical chemistry / alkaline phosphatase (alp/alk) / alkaline phosphatase (alp/alk…): 25.9 mg/kg/day
- LOAEL (rat [11]; [30]): 440 mg/kg/day
- LEL (rat [11]; [31]): 440 mg/kg/day
- NEL (rat [11]; [31]): 81 mg/kg/day
- NOAEL (rat [11]; [31]): 81 mg/kg/day
- LEL (rat [12]; [32]): 154 mg/kg/day
- LOAEL (rat [12]; [32]): 180 mg/kg/day
- NEL (rat [12]; [32]): 15.3 mg/kg/day
- NOAEL (rat [12]; [32]): 17.7 mg/kg/day
- LEL (rat [12]; [33]): 143 mg/kg/day
- LOAEL (rat [12]; [33]): 143 mg/kg/day
- NEL (rat [12]; [33]): 14.3 mg/kg/day
- NOAEL (rat [12]; [33]): 14.3 mg/kg/day
- LOAEL (rat [13]; [30]): 53.4 mg/kg/day
- LEL (rat [13]; [31]): 53.4 mg/kg/day
- NEL (rat [13]; [31]): 10.2 mg/kg/day
- NOAEL (rat [13]; [31]): 10.2 mg/kg/day
- LEL (rabbit [14]; [34]): 125 mg/kg/day
- LOAEL (rabbit [14]; [34]): 125 mg/kg/day
- NEL (rabbit [14]; [34]): 50 mg/kg/day
- NOAEL (rabbit [14]; [34]): 50 mg/kg/day
- LEL (rabbit [14]; [35]): 125 mg/kg/day
- LOAEL (rabbit [14]; [35]): 125 mg/kg/day
- NEL (rabbit [14]; [35]): 50 mg/kg/day
- NOAEL (rabbit [14]; [35]): 50 mg/kg/day
- LEL (rat [15]; [36]): 900 mg/kg/day
- LOAEL (rat [15]; [36]): 900 mg/kg/day
- NEL (rat [15]; [36]): 400 mg/kg/day
- NOAEL (rat [15]; [36]): 400 mg/kg/day
- LOAEL (rat [15]; group: maternal, systemic / in life observation / body weight / body weight gain + systemic / in life observation / food consumption / food consumption): 400 mg/kg/day
- LEL (rat [15]; [37]): 400 mg/kg/day
- NEL (rat [15]; [37]): 100 mg/kg/day
- NOAEL (rat [15]; [37]): 100 mg/kg/day
- LOAEL (rat [16]; [30]): 50 mg/kg/day
- LEL (rat [16]; [31]): 50 mg/kg/day
- NEL (rat [16]; [31]): 10 mg/kg/day
- NOAEL (rat [16]; [31]): 10 mg/kg/day
- LEL (mouse [17]): 366 mg/kg/day
- LOAEL (mouse [17]): 366 mg/kg/day
- NEL (mouse [17]): 28 mg/kg/day
- NOAEL (mouse [17]): 28 mg/kg/day
